Results reported in patent publication US20250032460A1, “METHODS OF TREATING NEUROLOGICAL DISORDERS” (MapLight Therapeutics, Inc., priority 2021, published 2025).
Values joined by “and” are separate entries in the source; they are usually repeats but may differ in a detail not shown here. Identical values can stand only once.

Tests used:
[1] = Plasma concentrations during 7-day oral dosing in beagle dogs; assay type: in vivo
[2] = Single ascending dose study: pharmacokinetics (plasma, CSF); assay type: in vivo; conditions: Group 2, fesoterodine fumarate 8 mg 4 hours prior to 40 mg Compound 1
Protocol: Compound 1 was administered in a single ascending dose (SAD) study conducted in approximately 54 healthy adult volunteers to investigate Compound 1 pharmacokinetics, safety, and tolerability. The study was conducted in two groups.
Group 2 evaluated tolerability of Compound 1 at Group 1 MTD with or without fesoterodine fumarate co-administration. Subjects received 8 mg of fesoterodine fumarate tablet or matched placebo tablet 4 hours prior to administration of 40 mg of Compound 1.

[3] = Group 2: fesoterodine fumarate 3 mg/kg/day PO alone, Day 7, 8 h
[4] = Group 3: Compound 1 1.5 mg/kg/day PO + fesoterodine fumarate 3 mg/kg/day PO, Day 1, 0.250 h
[5] = Group 3: Compound 1 1.5 mg/kg/day PO + fesoterodine fumarate 3 mg/kg/day PO, Day 1, 0.500 h
[6] = Group 3: Compound 1 1.5 mg/kg/day PO + fesoterodine fumarate 3 mg/kg/day PO, Day 1, 0.750 h
[7] = Group 3: Compound 1 1.5 mg/kg/day PO + fesoterodine fumarate 3 mg/kg/day PO, Day 1, 1.00 h
[8] = Group 3: Compound 1 1.5 mg/kg/day PO + fesoterodine fumarate 3 mg/kg/day PO, Day 1, 2.00 h
[9] = Group 3: Compound 1 1.5 mg/kg/day PO + fesoterodine fumarate 3 mg/kg/day PO, Day 1, 4.00 h
[10] = Group 3: Compound 1 1.5 mg/kg/day PO + fesoterodine fumarate 3 mg/kg/day PO, Day 1, 8.00 h
[11] = Group 3: Compound 1 1.5 mg/kg/day PO + fesoterodine fumarate 3 mg/kg/day PO, Day 7, 0.250 h
[12] = Group 3: Compound 1 1.5 mg/kg/day PO + fesoterodine fumarate 3 mg/kg/day PO, Day 7, 0.500 h
[13] = Group 3: Compound 1 1.5 mg/kg/day PO + fesoterodine fumarate 3 mg/kg/day PO, Day 7, 0.750 h
[14] = Group 3: Compound 1 1.5 mg/kg/day PO + fesoterodine fumarate 3 mg/kg/day PO, Day 7, 1.00 h
[15] = Group 3: Compound 1 1.5 mg/kg/day PO + fesoterodine fumarate 3 mg/kg/day PO, Day 7, 2.00 h
[16] = Group 3: Compound 1 1.5 mg/kg/day PO + fesoterodine fumarate 3 mg/kg/day PO, Day 7, 4.00 h
[17] = Group 3: Compound 1 1.5 mg/kg/day PO + fesoterodine fumarate 3 mg/kg/day PO, Day 7, 8.00 h

CC(C)N(CCC(c1ccccc1)c1cc(CO)ccc1O)C(C)C (stereo not shown) [desfesoterodine, 5-hydroxymethyl tolterodine]
Plasma concentration of desfesoterodine, individual animals D2001-D2005 ([1]; Group 2: fesoterodine fumarate 3 mg/kg/day PO alone, Day 7, 4 h): 51.4 ng/mL and 48.6 ng/mL and 44 ng/mL and 40.8 ng/mL and 43.5 ng/mL
Plasma concentration of desfesoterodine, Mean [1, 3]: 8.066 ng/mL
Plasma concentration of desfesoterodine, individual animals D2001-D2005 [1, 3]: 8.12 ng/mL and 7.08 ng/mL and 6.52 ng/mL and 13.8 ng/mL and 4.81 ng/mL
Plasma concentration of desfesoterodine, individual animals D2001-D2005 ([1]; Group 2: fesoterodine fumarate 3 mg/kg/day PO alone, Day 7, 24 h): BQL
Plasma concentration of desfesoterodine, individual animals D3001-D3005 ([1]; Group 3: Compound 1 1.5 mg/kg/day PO + fesoterodine fumarate 3 mg/kg/day PO, Day 1, 0.00 h): BQL
Plasma concentration of desfesoterodine, Mean [1, 4]: 125 ng/mL
Plasma concentration of desfesoterodine, individual animals D3001-D3005 [1, 4]: 225 ng/mL and 35.2 ng/mL and 333 ng/mL and 23.3 ng/mL and 9.33 ng/mL
Plasma concentration of desfesoterodine, Mean [1, 5]: 111 ng/mL
Plasma concentration of desfesoterodine, individual animals D3001-D3005 [1, 5]: 154 ng/mL and 58.0 ng/mL and 257 ng/mL and 35.9 ng/mL and 52.4 ng/mL
Plasma concentration of desfesoterodine, Mean [1, 6]: 100 ng/mL
Plasma concentration of desfesoterodine, individual animals D3001-D3005 [1, 6]: 136 ng/mL and 35.1 ng/mL and 203 ng/mL and 64.7 ng/mL and 61.3 ng/mL
Plasma concentration of desfesoterodine, Mean [1, 7]: 66.6 ng/mL
Plasma concentration of desfesoterodine, individual animals D3001-D3005 [1, 7]: 96.0 ng/mL and 30.6 ng/mL and 149 ng/mL and 15.8 ng/mL and 41.5 ng/mL
Plasma concentration of desfesoterodine, Mean [1, 8]: 36.0 ng/mL
Plasma concentration of desfesoterodine, individual animals D3001-D3005 [1, 8]: 32.4 ng/mL and 17.2 ng/mL and 74.2 ng/mL and 10.7 ng/mL and 45.5 ng/mL
Plasma concentration of desfesoterodine, Mean [1, 9]: 9.29 ng/mL
Plasma concentration of desfesoterodine, individual animals D3001-D3005 [1, 9]: 7.08 ng/mL and 3.69 ng/mL and 17.0 ng/mL and 5.38 ng/mL and 13.3 ng/mL
Plasma concentration of desfesoterodine, Mean [1, 10]: 2.78 ng/mL
Plasma concentration of desfesoterodine, individual animals D3001-D3005 [1, 10]: 1.41 ng/ml and 4.22 ng/ml and 3.82 ng/ml and BQL and 1.67 ng/ml
Plasma concentration of desfesoterodine, individual animals D3001-D3005 ([1]; Group 3: Compound 1 1.5 mg/kg/day PO + fesoterodine fumarate 3 mg/kg/day PO, Day 1, 24.0 h): BQL
Plasma concentration of desfesoterodine, individual animals D3001-D3005 ([1]; Group 3: Compound 1 1.5 mg/kg/day PO + fesoterodine fumarate 3 mg/kg/day PO, Day 7, 0.00 h): BQL
Plasma concentration of desfesoterodine, Mean [1, 11]: 183 ng/mL
Plasma concentration of desfesoterodine, individual animals D3001-D3005 [1, 11]: 29.1 ng/mL and 60.6 ng/mL and 407 ng/mL and 149 ng/mL and 270 ng/mL
Plasma concentration of desfesoterodine, Mean [1, 12]: 201 ng/mL
Plasma concentration of desfesoterodine, individual animals D3001-D3005 [1, 12]: 103 ng/mL and 77.7 ng/mL and 318 ng/mL and 197 ng/mL and 311 ng/mL
Plasma concentration of desfesoterodine, Mean [1, 13]: 148 ng/mL
Plasma concentration of desfesoterodine, individual animals D3001-D3005 [1, 13]: 84.3 ng/mL and 66.4 ng/mL and 294 ng/mL and 102 ng/mL and 191 ng/mL
Plasma concentration of desfesoterodine, Mean [1, 14]: 128 ng/mL
Plasma concentration of desfesoterodine, individual animals D3001-D3005 [1, 14]: 73.5 ng/mL and 64.7 ng/mL and 224 ng/mL and 105 ng/mL and 175 ng/mL
Plasma concentration of desfesoterodine, Mean [1, 15]: 80.5 ng/mL
Plasma concentration of desfesoterodine, individual animals D3001-D3005 [1, 15]: 45.8 ng/mL and 42.6 ng/mL and 149 ng/mL and 63.2 ng/mL and 102 ng/mL
Plasma concentration of desfesoterodine, Mean [1, 16]: 40.2 ng/mL
Plasma concentration of desfesoterodine, individual animals D3001-D3005 [1, 16]: 52.2 ng/mL and 15.2 ng/mL and 61.6 ng/mL and 31.6 ng/mL and 40.5 ng/mL
Plasma concentration of desfesoterodine, Mean [1, 17]: 5.93 ng/mL
Plasma concentration of desfesoterodine, individual animals D3001-D3005 [1, 17]: 10.6 ng/mL and 3.92 ng/mL and 8.16 ng/mL and 2.93 ng/mL and 4.06 ng/mL
Plasma concentration of desfesoterodine, individual animals D3001-D3005 ([1]; Group 3: Compound 1 1.5 mg/kg/day PO + fesoterodine fumarate 3 mg/kg/day PO, Day 7, 24.0 h): BQL
mean desfesoterodine concentration in CSF at 1hour after administration of compound 1 [2]: 121.44 pg/mL
